Source: patent US20250034170A1, “SMALL MOLECULE MODULATORS OF GLUCOCEREBROSIDASE ACTIVITY AND USES THEREOF” (Vanqua Bio, Inc., priority 2021, published 2025)

What follows are molecules tested against T1, GCase (Homo sapiens, UniProt P04062) (assay: activation of GCase in a live cell PFB assay in HELA cells). Details: EC50 given as range classes.
T1 construct: endogenous in cells; host or cells: HeLa cells
T1 sequence (P04062 40-536): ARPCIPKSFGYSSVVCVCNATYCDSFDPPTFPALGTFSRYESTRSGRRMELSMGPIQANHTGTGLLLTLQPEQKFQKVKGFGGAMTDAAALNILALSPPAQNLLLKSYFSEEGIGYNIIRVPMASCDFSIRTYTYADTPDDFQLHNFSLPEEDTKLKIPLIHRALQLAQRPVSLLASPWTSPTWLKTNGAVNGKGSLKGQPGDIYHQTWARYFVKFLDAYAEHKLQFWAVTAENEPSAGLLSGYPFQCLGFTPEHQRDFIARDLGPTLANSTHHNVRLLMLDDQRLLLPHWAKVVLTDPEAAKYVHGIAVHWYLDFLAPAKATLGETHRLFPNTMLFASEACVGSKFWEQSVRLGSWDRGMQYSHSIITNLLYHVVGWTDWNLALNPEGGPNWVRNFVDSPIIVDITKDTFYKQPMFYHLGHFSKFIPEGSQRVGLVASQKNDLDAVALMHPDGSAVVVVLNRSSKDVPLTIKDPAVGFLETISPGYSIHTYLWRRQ
Assay type: cell-based
Description: Exemplary compounds were evaluated for activation of GCase in a live cell PFB assay in HELA cells (essentially as described in Ysselstein et al., “LRRK2 kinase activity regulates lysosomal glucocerebrosidase in neurons derived from Parkinson's disease patients” Nature Communications (2019) 10:5570). […] EC50 ranges: A: <10 μM; B: >10-50 μM; C: >50-100 μM; D: >100 μM.
Molecule `FC(F)Cn1ncc2ncc(NC3COC4(C3)CN(c3ccc(C(F)(F)F)nc3)C4)nc21` (stereo not drawn) [Cmpd 191] has an EC50 of 10 to 50 µM. With `FC(F)Cn1ncc2ncc(NC3COC4(C3)CN(c3cc(C(F)(F)F)ccn3)C4)nc21` (stereo not drawn) [Cmpd 192] the EC50 was under 10 µM. `FC(F)Cn1ncc2ncc(NC3CCC4(CCN(c5ccc(C(F)(F)F)nc5)C4)C3)nc21` (stereo not drawn) [Cmpd 193] gave an EC50 of 10 to 50 µM. `FC(F)Cn1ncc2ncc(NC3CCC4(CCN(c5cc(C(F)(F)F)ccn5)C4)C3)nc21` (stereo not drawn) [Cmpd 194] gave an EC50 of under 10 µM. Work on `FC(F)Cn1ncc2ncc(NC3CCC4(CCN(c5ccc(C(F)(F)F)nc5)CC4)C3)nc21` (stereo not drawn) [Cmpd 195] yielded an EC50 of 10 to 50 µM. For `FC(F)Cn1ncc2ncc(NC3CCC4(CCN(c5cc(C(F)(F)F)ccn5)CC4)C3)nc21` (stereo not drawn) [Cmpd 196], the EC50 was over 100 µM. Molecule `FC(F)Cn1ncc2ncc(N[C@H]3CC[C@@]4(CCN(c5cc(C(F)(F)F)ccn5)C4)CC3)nc21` [Cmpd 197] has an EC50 of 10 to 50 µM. `FC(F)Cn1ncc2ncc(NC3CCC4(CC3)CN(c3ccc(C(F)(F)F)cn3)C4)nc21` [Cmpd 198] gave an EC50 of 10 to 50 µM. With `FC(F)Cn1ncc2ncc(NC3CCC4(CC3)CN(c3cncc(C(F)(F)F)c3)C4)nc21` [Cmpd 199] the EC50 was under 10 µM. `FC(F)Cn1ncc2ncc(NC3CCC4(CC3)CN(c3ccc(C(F)(F)F)nc3)C4)nc21` [Cmpd 200] was tested, and the EC50 was 10 to 50 µM. `O=C1N(c2ccc(C(F)(F)F)nc2)CCC12CCN(c1cnc3cnn(CC(F)F)c3n1)C2` (stereo not drawn) [Cmpd 201] was tested, and the EC50 was 10 to 50 µM. `O=C1N(c2ccc(C(F)(F)F)cn2)CCC12CCN(c1cnc3cnn(CC(F)F)c3n1)C2` (stereo not drawn) [Cmpd 202] gave an EC50 of 10 to 50 µM. `O=C1N(c2cccc(C(F)(F)F)n2)CCC12CCN(c1cnc3cnn(CC(F)F)c3n1)C2` (stereo not drawn) [Cmpd 203] gave an EC50 of 10 to 50 µM. In the case of `O=C1N(c2cncc(C(F)(F)F)c2)CCC12CCN(c1cnc3cnn(CC(F)F)c3n1)C2` (stereo not drawn) [Cmpd 204], the EC50 is reported as 10 to 50 µM. Molecule `FC(F)Cn1ncc2ncc(N3CCC4(CC3)CN(c3ccc(C(F)(F)F)nc3)CCO4)nc21` [Cmpd 205] has an EC50 of under 10 µM. In the case of `FC(F)Cn1ncc2ncc(N3CCC4(CC3)CN(c3cncc(C(F)(F)F)c3)CCO4)nc21` [Cmpd 206], the EC50 is reported as under 10 µM. `FC(F)Cn1ncc2ncc(N3CCC4(CC3)CN(c3ccc(C(F)(F)F)cn3)CCO4)nc21` [Cmpd 207] was tested, and the EC50 was under 10 µM. Work on `FC(F)Cn1ncc2ncc(N3CCC4(CC3)CN(c3cccc(C(F)(F)F)n3)CCO4)nc21` [Cmpd 208] yielded an EC50 of 10 to 50 µM. For `FC(F)Cn1ncc2ncc(N3CCOC4(CCN(c5ccc(C(F)(F)F)nc5)CC4)C3)nc21` [Cmpd 209], the EC50 was under 10 µM. `FC(F)Cn1ncc2ncc(N3CCOC4(CCN(c5cncc(C(F)(F)F)c5)CC4)C3)nc21` [Cmpd 210] showed an EC50 of under 10 µM. `FC(F)Cn1ncc2ncc(N3CCOC4(CCN(c5cccc(C(F)(F)F)n5)CC4)C3)nc21` [Cmpd 211] gave an EC50 of 10 to 50 µM. `FC(F)Cn1ncc2ncc(N3CCOC4(CCN(c5ccc(C(F)(F)F)cn5)CC4)C3)nc21` [Cmpd 212] showed an EC50 of 10 to 50 µM. With `FC(F)Cn1ncc2ncc(N3CCC4(CCCN(c5ccc(C(F)(F)F)cn5)C4)CC3)nc21` [Cmpd 213] the EC50 was 10 to 50 µM. In the case of `FC(F)Cn1ncc2ncc(N3CCC4(CCCN(c5ccc(C(F)(F)F)nc5)C4)CC3)nc21` [Cmpd 214], the EC50 is reported as 10 to 50 µM. With `FC(F)Cn1ncc2ncc(N3CCC4(CCCN(c5cncc(C(F)(F)F)c5)C4)CC3)nc21` [Cmpd 215] the EC50 was under 10 µM. `FC(F)Cn1ncc2ncc(N3CCC4(CCCN(c5cccc(C(F)(F)F)n5)C4)CC3)nc21` [Cmpd 216] gave an EC50 of 10 to 50 µM. With `FC(F)Cn1ncc2ncc(N3CCCC4(CCN(c5cc(C(F)(F)F)ccn5)CC4)C3)nc21` [Cmpd 217] the EC50 was 10 to 50 µM. Molecule `FC(F)Cn1ncc2ncc(N3CCCC4(CCN(c5ccc(C(F)(F)F)cn5)CC4)C3)nc21` [Cmpd 218] has an EC50 of 10 to 50 µM. With `FC(F)Cn1ncc2ncc(N3CCCC4(CCN(c5cccc(C(F)(F)F)n5)CC4)C3)nc21` [Cmpd 219] the EC50 was 10 to 50 µM. `FC(F)Cn1ncc2ncc(N3CCCC4(CCN(c5ccc(C(F)(F)F)nc5)CC4)C3)nc21` [Cmpd 220] gave an EC50 of under 10 µM. With `FC(F)Cn1ncc2ncc(N3CCCC4(CCN(c5cncc(C(F)(F)F)c5)CC4)C3)nc21` [Cmpd 221] the EC50 was 10 to 50 µM. Molecule `FC(F)Cn1ncc2ncc(N3CC4(CCN(c5ccnc(C(F)(F)F)c5)C4)C3)nc21` [Cmpd 222] has an EC50 of 10 to 50 µM. Molecule `FC(F)Cn1ncc2ncc(N3CCC4(CN(c5ccnc(C(F)(F)F)c5)C4)C3)nc21` [Cmpd 223] has an EC50 of under 10 µM. Work on `FC(F)Cn1ncc2ncc(N3CCC4(CCCN(c5cc(C(F)(F)F)ccn5)C4)CC3)nc21` [Cmpd 224] yielded an EC50 of 10 to 50 µM. Molecule `FC(F)Cn1ncc2ncc(N3CCC4(CCCN(c5ccnc(C(F)(F)F)c5)C4)CC3)nc21` [Cmpd 225] has an EC50 of under 10 µM. `FC(F)Cn1ncc2ncc(N3CCCC4(CCN(c5ccnc(C(F)(F)F)c5)CC4)C3)nc21` [Cmpd 226] gave an EC50 of over 100 µM. With `FC(F)Cn1ncc2ncc(N3CCC4(CC3)CC(Nc3ccc(C(F)(F)F)cn3)C4)nc21` [Cmpd 227] the EC50 was 10 to 50 µM. Work on `FC(F)Cn1ncc2ncc(N3CCC4(CC3)CC(Nc3cncc(C(F)(F)F)c3)C4)nc21` [Cmpd 228] yielded an EC50 of over 100 µM. Work on `FC(F)Cn1ncc2ncc(N3CCC4(CC3)CC(Nc3ccnc(C(F)(F)F)c3)C4)nc21` [Cmpd 229] yielded an EC50 of 10 to 50 µM. With `FC(F)Cn1ncc2ncc(N3CCC4(CC3)CC(Nc3ccc(C(F)(F)F)nc3)C4)nc21` [Cmpd 230] the EC50 was 10 to 50 µM. For `FC(F)Cn1ncc2ncc(N3CCC4(CC3)CC(Nc3cc(C(F)(F)F)ccn3)C4)nc21` [Cmpd 231], the EC50 was 10 to 50 µM. Work on `FC(F)Cn1ncc2ncc(N3CCC4(CC3)CC(Nc3cccc(C(F)(F)F)n3)C4)nc21` [Cmpd 232] yielded an EC50 of 10 to 50 µM. `FC(F)(F)c1ccc(N2CCC3(CCN(c4cncc(-c5nncs5)n4)CC3)C2)cn1` [Cmpd 233] gave an EC50 of under 10 µM.

Same assay, conditions: activation of GCase, EC50 ranges
In the case of `C[C@H]1CN(c2cnc3cnn(CC(F)F)c3n2)CC[C@@]12CCN(c1cccc(C(F)(F)F)n1)C2=O` (racemic) [Cmpd 669], the EC50 is reported as 10 to 50 µM. `FC(F)(F)c1ccc(N2CCC3(CCN(c4cncc(-c5nncs5)n4)CC3)C2)nc1` [Cmpd 234] gave an EC50 of 10 to 50 µM. Work on `FC(F)(F)c1cncc(N2CCC3(CCN(c4cncc(-c5nncs5)n4)CC3)C2)c1` [Cmpd 235] yielded an EC50 of 50 to 100 µM. Molecule `O=C1CC2(CCN(c3cncc(-c4nncs4)n3)CC2)CN1c1ccc(C(F)(F)F)nc1` [Cmpd 236] has an EC50 of under 10 µM. `O=C1CC2(CCN(c3cncc(-c4nncs4)n3)CC2)CN1c1cncc(C(F)(F)F)c1` [Cmpd 237] showed an EC50 of 10 to 50 µM. `FC(F)(F)c1ccc(N2CCC3(CCN(c4cncc(-n5ccnc5)n4)CC3)C2)cn1` [Cmpd 238] showed an EC50 of 10 to 50 µM. Work on `FC(F)(F)c1ccc(N2CCC3(CCN(c4cncc(-n5cccn5)n4)CC3)C2)cn1` [Cmpd 239] yielded an EC50 of under 10 µM. In the case of `FC(F)(F)c1ccc(N2CCC3(CCN(c4nccn5cncc45)CC3)C2)cn1` [Cmpd 240], the EC50 is reported as 50 to 100 µM. `O=C1N(c2cc(C(F)(F)F)ccn2)CCC12CCN(c1cncc(-n3cccn3)n1)CC2` [Cmpd 241] was tested, and the EC50 was 10 to 50 µM. Molecule `O=C1N(c2cc(C(F)(F)F)ccn2)CCC12CCN(c1cncc(-n3ccnc3)n1)CC2` [Cmpd 242] has an EC50 of 10 to 50 µM. `FC(F)(F)COc1cncc(N2CCC3(CCN(c4ccc(C(F)(F)F)nc4)C3)CC2)n1` [Cmpd 243] was tested, and the EC50 was under 10 µM. Molecule `O=C1N(c2cc(C(F)(F)F)ccn2)CCC12CCN(c1cncc(OCC(F)(F)F)n1)CC2` [Cmpd 244] has an EC50 of 10 to 50 µM. In the case of `O=C1N(c2cc(C(F)(F)F)ccn2)CCC12CCN(c1cncc(N3CCCC3)n1)CC2` [Cmpd 245], the EC50 is reported as 10 to 50 µM. In the case of `O=C1N(c2cc(C(F)(F)F)ccn2)CCC12CCN(c1cncc(N3CCOCC3)n1)CC2` [Cmpd 246], the EC50 is reported as 10 to 50 µM. With `O=C1N(c2ccc(C(F)(F)F)nc2)CC(c2ccccc2)C12CCN(c1cnc3cnn(CC(F)F)c3n1)CC2` (stereo not drawn) [Cmpd 247] the EC50 was under 10 µM. `FC(F)(F)c1ccc(N2CCC3(CCN(c4cncc(N5CCCC5)n4)CC3)C2)cn1` [Cmpd 248] gave an EC50 of under 10 µM. Work on `FC(F)(F)c1ccc(N2CCC3(CCN(c4cncc(N5CCOCC5)n4)CC3)C2)cn1` [Cmpd 249] yielded an EC50 of 10 to 50 µM. For `Cc1nccn1-c1cncc(N2CCC3(CCN(c4ccc(C(F)(F)F)nc4)C3)CC2)n1` [Cmpd 250], the EC50 was 10 to 50 µM. For `FC(F)(F)c1ccc(N2CCC3(CCN(c4cncc(-c5ccccc5)n4)CC3)C2)cn1` [Cmpd 251], the EC50 was under 10 µM. Work on `FC(F)(F)c1ccc(N2CCC3(CCN(c4cncc(-c5ncccn5)n4)CC3)C2)cn1` [Cmpd 252] yielded an EC50 of 10 to 50 µM. Work on `FC(F)(F)c1ccc(N2CCC3(CCN(c4cncc(-n5cncn5)n4)CC3)C2)cn1` [Cmpd 253] yielded an EC50 of under 10 µM. `CC(C)Oc1cncc(N2CCC3(CCN(c4ccc(C(F)(F)F)nc4)C3)CC2)n1` [Cmpd 254] showed an EC50 of 10 to 50 µM. Molecule `FC(F)(F)c1ccc(N2CCC3(CCN(c4cncc(C(F)(F)F)n4)CC3)C2)cn1` [Cmpd 255] has an EC50 of under 10 µM. `FC(F)(F)c1ccc(N2CCC3(CCN(c4cncc(N5CCCCC5)n4)CC3)C2)cn1` [Cmpd 256] was tested, and the EC50 was under 10 µM. With `Cc1nn(CC(F)F)c2nc(N3CCC4(CCN(c5ccc(C(F)(F)F)nc5)C4)CC3)cnc12` [Cmpd 257] the EC50 was under 10 µM. `Cc1nn(CC(F)F)c2nc(N3CCC4(CC3)CC(=O)N(c3ccc(C(F)(F)F)nc3)C4)cnc12` [Cmpd 258] showed an EC50 of under 10 µM. Work on `FC(F)Cn1ncc2ncc(N3CCC4(CC3)CN(c3cc(C(F)(F)F)ccn3)c3ccccc34)nc21` [Cmpd 259] yielded an EC50 of 10 to 50 µM. Molecule `Cc1nn(CC(F)F)c2nc(N3CCC4(CC3)CCN(c3ccc(C(F)(F)F)nc3)C4=O)cnc12` [Cmpd 260] has an EC50 of under 10 µM. With `O=C1N(c2ccc(C(F)(F)F)nc2)c2ccccc2C12CCN(c1cnc3cnn(CC(F)F)c3n1)CC2` [Cmpd 261] the EC50 was 10 to 50 µM.
